Measurements reported in patent US20260216164A1, “INDOLE COMPOUND DECOMPOSING IKZF2, AND USE THEREOF” (KOREA RESEARCH INSTITUTE OF CHEMICAL TECHNOLOGY, priority 2023, published 2026).

Experiments:
IKZF2 (Helios) = IKZF2 (Helios) (Homo sapiens, UniProt Q96SW2+Q9UKS7); test: Screening of DC50 (nM) and Dmax (%) using WB-IKZF2 cell line (Western blot); type: cell-based; design: endogenous in cells; settings: 6 hours; for DC50: class symbols, read-out: WB-IKZF2 DC 50
Experimental: Experimental Example 2. Screening of DC50 (nM) and Dmax (%) Using WB-IKZF2 Cell Line
Candidate degraders were serially diluted and treated in cells cultured in complete medium, followed by incubation for 6 hours at 37° C. in a CO2 incubator. After 6 hours, the cells were harvested and lysed in RIPA buffer (150 mM NaCl, 1% Triton X-100, 1% sodium deoxycholate, 0.1% SDS, 50 mM Tris-HCl pH 7.5, and 2 mM EDTA) containing a protease inhibitor cocktail (Roche). The mixture was vortexed every 10 minutes and incubated on ice for 30 minutes, followed by centrifugation at 13,000 rpm for 10 minutes at 4° C. to isolate proteins. The isolated proteins were quantified using the Bradford assay (Bio-Rad, 5000006). Proteins were separated on 8% SDS-polyacrylamide gel, transferred onto nitrocellulose membranes (Amersham, 10600002), and incubated with primary antibodies at 4° C. for 18 hours. The following primary antibodies were used: anti-Helios rabbit monoclonal antibody (Cell Signaling, 42427, 1:3000) and anti-β-actin mouse monoclonal antibody (Santa Cruz, sc-47778, 1:5000). β-actin was used as a loading control. The next day, the membranes were washed with 1×TBST for 30 minutes and incubated with HRP-conjugated secondary antibodies corresponding to the primary antibodies at room temperature for 1 hour. The following secondary antibodies were used: anti-mouse IgG HRP-linked antibody (Sigma, A9044, 1:5000) and anti-rabbit IgG HRP-linked antibody (Cell Signaling, 7074, 1:5000). After washing with 1×TBST for 30 minutes, protein expression was visualized using the Pierce ECL Western blotting substrate (Thermo Fisher, 32106), and images were captured using a chemiluminescence image analysis system (GE Healthcare, AI680). The obtained images were quantified using the ImageJ software.

Helios (IKZF2) = Helios (IKZF2) (Homo sapiens, UniProt Q96SW2+Q9UKS7); test: Screening of Helios protein degraders using Nano-Glo HiBiT cell line (HiBiT-IKZF2); type: cell-based; settings: 6 hours, HiBiT-Helios knock-in Jurkat cells; for remaining activity at 1 µM: compound 1 μM, read-out: HiBiT-IKZF2 Residual amount of Helios (%) 1 μM; for remaining activity at 10 µM: compound 10 μM, read-out: HiBiT-IKZF2 Residual amount of Helios (%) 10 μM
Experimental: To observe intracellular degradation of Helios, the Nano-Glo HiBiT detection system (Promega) was employed. […] The cells expressing Helios fused with HiBiT were validated using the Nano-Glo HiBiT detection system (Promega) according to a predetermined protocol, isolated as single cells, and cultured in complete medium to establish a monoclonal cell line.
After 6 hours, the Nano-Glo HiBiT detection reagent was added to each well in an equal volume to the cell culture medium and incubated at room temperature for 10 minutes. Following incubation, the HiBiT luminescence signal was measured using a microplate reader (Perkin Elmer).

Sequence of Helios (IKZF2) (Q9UKS7 whole entry, the tested form may be a part): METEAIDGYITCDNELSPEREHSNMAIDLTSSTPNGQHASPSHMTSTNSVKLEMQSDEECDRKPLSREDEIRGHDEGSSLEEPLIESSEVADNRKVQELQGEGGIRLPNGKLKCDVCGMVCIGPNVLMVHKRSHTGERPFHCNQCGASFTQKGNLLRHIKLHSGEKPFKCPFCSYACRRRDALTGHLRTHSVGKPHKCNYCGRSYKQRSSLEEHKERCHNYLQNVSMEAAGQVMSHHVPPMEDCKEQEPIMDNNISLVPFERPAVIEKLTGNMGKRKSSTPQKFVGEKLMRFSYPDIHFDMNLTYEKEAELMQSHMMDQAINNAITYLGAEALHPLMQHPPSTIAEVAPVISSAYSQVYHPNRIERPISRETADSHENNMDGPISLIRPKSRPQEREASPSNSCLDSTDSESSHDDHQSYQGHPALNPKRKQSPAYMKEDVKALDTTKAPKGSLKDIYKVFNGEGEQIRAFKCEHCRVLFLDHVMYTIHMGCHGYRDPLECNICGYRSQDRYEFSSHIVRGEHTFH
Sequence of Helios (IKZF2) (Q96SW2 whole entry, the tested form may be a part): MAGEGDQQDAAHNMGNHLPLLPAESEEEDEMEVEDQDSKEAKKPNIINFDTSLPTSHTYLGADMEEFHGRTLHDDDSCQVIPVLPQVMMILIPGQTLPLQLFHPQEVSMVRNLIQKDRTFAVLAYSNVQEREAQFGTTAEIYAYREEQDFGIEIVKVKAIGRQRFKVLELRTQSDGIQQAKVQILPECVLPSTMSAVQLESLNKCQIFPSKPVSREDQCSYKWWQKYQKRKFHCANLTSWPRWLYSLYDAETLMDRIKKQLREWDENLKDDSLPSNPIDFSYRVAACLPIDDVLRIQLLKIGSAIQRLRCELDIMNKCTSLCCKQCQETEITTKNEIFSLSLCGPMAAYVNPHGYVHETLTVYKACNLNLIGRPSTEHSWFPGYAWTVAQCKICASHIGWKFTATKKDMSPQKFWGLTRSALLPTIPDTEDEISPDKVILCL
Sequence of Helios (IKZF2) (Q16531 whole entry partner, the tested form may be a part): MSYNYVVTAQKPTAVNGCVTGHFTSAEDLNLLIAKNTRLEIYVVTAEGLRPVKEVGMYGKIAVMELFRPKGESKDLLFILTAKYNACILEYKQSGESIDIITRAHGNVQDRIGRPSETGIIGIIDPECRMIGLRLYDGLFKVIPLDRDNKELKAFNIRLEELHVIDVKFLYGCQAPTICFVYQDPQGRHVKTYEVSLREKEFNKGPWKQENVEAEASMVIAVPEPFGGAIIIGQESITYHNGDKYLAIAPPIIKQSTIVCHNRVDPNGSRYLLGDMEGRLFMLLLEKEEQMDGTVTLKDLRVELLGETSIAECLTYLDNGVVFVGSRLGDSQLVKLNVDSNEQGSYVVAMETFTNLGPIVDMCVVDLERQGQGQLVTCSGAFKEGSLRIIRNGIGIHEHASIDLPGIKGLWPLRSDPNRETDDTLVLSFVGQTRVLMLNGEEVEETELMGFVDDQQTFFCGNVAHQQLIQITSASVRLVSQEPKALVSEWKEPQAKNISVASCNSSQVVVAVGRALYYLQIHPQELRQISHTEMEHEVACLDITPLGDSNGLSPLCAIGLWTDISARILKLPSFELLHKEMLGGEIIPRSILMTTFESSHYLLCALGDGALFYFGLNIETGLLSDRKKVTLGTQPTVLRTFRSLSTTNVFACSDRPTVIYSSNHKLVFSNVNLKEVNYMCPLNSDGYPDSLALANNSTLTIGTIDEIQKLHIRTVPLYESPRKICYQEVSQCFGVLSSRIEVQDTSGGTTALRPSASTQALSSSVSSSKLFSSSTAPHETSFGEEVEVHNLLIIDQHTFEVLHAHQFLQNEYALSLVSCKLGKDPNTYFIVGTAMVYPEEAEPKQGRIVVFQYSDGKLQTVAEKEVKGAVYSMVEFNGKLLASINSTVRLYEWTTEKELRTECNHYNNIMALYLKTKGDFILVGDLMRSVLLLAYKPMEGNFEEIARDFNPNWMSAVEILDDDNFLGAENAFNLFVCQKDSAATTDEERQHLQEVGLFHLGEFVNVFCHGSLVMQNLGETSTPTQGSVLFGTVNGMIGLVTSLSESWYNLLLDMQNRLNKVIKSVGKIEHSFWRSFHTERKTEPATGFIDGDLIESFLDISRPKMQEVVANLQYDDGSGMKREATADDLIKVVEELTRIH
Sequence of IKZF2 (Helios) (Q9UKS7 whole entry): as the sequence (Q9UKS7 whole entry, the tested form may be a part) above
Sequence of IKZF2 (Helios) (Q96SW2 whole entry): as the sequence (Q96SW2 whole entry, the tested form may be a part) above
Sequence of IKZF2 (Helios) (Q16531 whole entry partner): as the sequence (Q16531 whole entry partner, the tested form may be a part) above

Compound | Dmax (IKZF2 (Helios)) | DC50 (IKZF2 (Helios)) | remaining activity at 1 µM (Helios (IKZF2)) | remaining activity at 10 µM (Helios (IKZF2))
Cc1c(C(=O)N2CCC(c3ccc4c(c3F)CN(C3CCC(=O)NC3=O)C4=O)CC2)[nH]c2cc(N3CCOCC3)ccc12 (centres unmarked) [Compound 116, 3-(4-fluoro-5-(1-(3-methyl-6-morpholino-1H-indole-2-carbonyl)piperidin-4-yl)-1-oxoinsoindolin-2-yl)piperidine-2,6-dione] | 96% | 0.01 to 0.1 µM | – | –
Cc1c(C(=O)N2CCC(c3ccc4c(c3F)C(=O)N(C3CCC(=O)NC3=O)C4=O)CC2)[nH]c2cc(Cl)ccc12 (centres unmarked) [Compound 121, 5-(1-(6-chloro-3-methyl-1H-indole-2-carbonyl)piperidin-4-yl)-2-(2,6-dioxopiperidin-3-yl)-4-fluoroisoindoline-1,3-dione] | – | 0.1 to 1 µM | – | –
Cc1c(C(=O)N2CCC(c3ccc4c(c3F)CN(C3CCC(=O)NC3=O)C4=O)CC2)[nH]c2c(F)c(Cl)ccc12 (centres unmarked) [Compound 117, 3-(5-(1-(6-chloro-7-fluoro-3-methyl-1H-indole-2-carbonyl)piperidin-4-yl)-4-fluoro-1-oxoinsoindolin-2-yl)piperidine-2,6-dione] | – | < 0.01 µM | – | –
Cc1c(C(=O)N2CCC(c3ccc4c(c3F)CN(C3CCC(=O)NC3=O)C4=O)CC2)[nH]c2cc(C#N)ccc12 (centres unmarked) [Compound 118, 2-(4-(2-(2,6-dioxopiperidin-3-yl)-4-fluoro-1-oxoindolin-5-yl)piperidine-1-carbonyl)-3-methyl-1H-indole-6-carbonitrile] | 100% | < 0.01 µM | – | –
Cc1c(C(=O)N2CCC(=Cc3ccc4c(c3)CN(C3CCC(=O)NC3=O)C4=O)CC2)[nH]c2ccccc12 (centres unmarked) [Compound 27, 3-(5-((1-(3-methyl-1H-indole-2-carbonyl)piperidin-4-ylidene)methyl)-1-oxoinsoindolin-2-yl)piperidine-2,6-dione] | – | – | 96.4% | 91.7%
O=C1CCC(N2Cc3cc(C4CCN(C(=O)c5cc6ncc(Cl)cc6[nH]5)CC4)ccc3C2=O)C(=O)N1 (centres unmarked) [Compound 45, 3-(5-(1-(6-chloro-1H-picolo[3,2-b]pyridine-2-carbonyl)piperidin-4-yl)-1-oxoinsoindolin-2-yl)piperidine-2,6-dione] | – | – | 70.3% | 58.2%
CN1CCN(Cc2c(C(=O)N3CCC(c4ccc5c(c4)CN(C4CCC(=O)NC4=O)C5=O)CC3)[nH]c3cc(Cl)ccc23)CC1 (centres unmarked) [Compound 114, 3-(5-(1-(6-chloro-3-((4-methylpiperazin-1-yl)methyl)-1H-indole-2-carbonyl)piperidin-4-yl)-1-oxoinsoindolin-2-yl)piperidine-2,6-dione] | – | – | 31.8% | –
COc1cc2cc(C(=O)N3CCC(c4ccc5c(c4)CN(C4CCC(=O)NC4=O)C5=O)CC3)[nH]c2cc1OC (centres unmarked) [Compound 40, 3-(5-(1-(5,6-dimethoxy-1H-indole-2-carbonyl)piperidin-4-yl)-1-oxoinsoindolin-2-yl)piperidine-2,6-dione] | – | – | 92.2% | 74.5%
COc1cccc2cc(C(=O)N3CCC(c4ccc5c(c4)CN(C4CCC(=O)NC4=O)C5=O)CC3)[nH]c12 (centres unmarked) [Compound 12, 3-(5-(1-(7-methoxy-1H-indole-2-carbonyl)piperidin-4-yl)-1-oxoinsoindolin-2-yl)piperidine-2,6-dione] | – | – | 89.9% | 94.1%
O=C1CCC(N2Cc3cc(C4CCN(C(=O)c5cc6cnc(Cl)cc6[nH]5)CC4)ccc3C2=O)C(=O)N1 (centres unmarked) [Compound 46, 3-(5-(1-(6-chloro-1H-picolo[3,2-c]pyridine-2-carbonyl)piperidin-4-yl)-1-oxoinsoindolin-2-yl)piperidine-2,6-dione] | – | – | 58.1% | 47.4%
Nc1ccc2cc(C(=O)N3CCC(c4ccc5c(c4)CN(C4CCC(=O)NC4=O)C5=O)CC3)[nH]c2c1 (centres unmarked) [Compound 32, 3-(5-(1-(6-amino-1H-indole-2-carbonyl)piperidin-4-yl)-1-oxoinsoindolin-2-yl)piperidine-2,6-dione] | – | – | 62.1% | 57.3%
Cc1c(C(=O)N2CCC(c3ccc4c(c3)CN(C3CCC(=O)NC3=O)C4=O)CC2)[nH]c2c(C)c(Cl)ccc12 (centres unmarked) [Compound 100, 3-(5-(1-(6-chloro-3,7-dimethyl-1H-indole-2-carbonyl)piperidin-4-yl)-1-oxoinsoindolin-2-yl)piperidine-2,6-dione] | – | – | 16.8% | 11.4%
Cc1c(C(=O)N2CCC(c3ccc4c(c3)CN(C3CCC(=O)NC3=O)C4=O)CC2)[nH]c2cc(Cl)c(CN3CCNCC3)cc12 (centres unmarked) [Compound 109, 3-(5-(1-(6-chloro-3-methyl-5-(piperazin-1-ylmethyl)-1H-indole-2-carbonyl)piperidin-4-yl)-1-oxoinsoindolin-2-yl)piperidine-2,6-dione dichloride] | – | – | 38.4% | 24.6%
Cc1ccc2cc(C(=O)N3CCC(c4ccc5c(c4)CN(C4CCC(=O)NC4=O)C5=O)CC3)[nH]c2c1 (centres unmarked) [Compound 15, 3-(5-(1-(6-methyl-1H-indole-2-carbonyl)piperidin-4-yl)-1-oxoinsoindolin-2-yl)piperidine-2,6-dione] | – | – | 66.9% | 73%
O=C1CCC(N2Cc3cc(C4CCN(C(=O)c5cc6c(Cl)cc(Cl)cc6[nH]5)CC4)ccc3C2=O)C(=O)N1 (centres unmarked) [Compound 6, 3-(5-(1-(4,6-dichloro-1H-indole-2-carbonyl)piperidin-4-yl)-1-oxoinsoindolin-2-yl)piperidine-2,6-dione] | – | – | 107% | 107%
Cc1c(C(=O)N2CCC(c3ccc4c(c3)CN(C3CCC(=O)NC3=O)C4=O)CC2)[nH]c2cc(C(C)(C)C)ccc12 (centres unmarked) [Compound 56, 3-(5-(1-(6-(tert-butyl)-3-methyl-1H-indole-2-carbonyl)piperidin-4-yl)-1-oxoinsoindolin-2-yl)piperidine-2,6-dione] | – | – | – | 31.3%
O=C1CCC(N2Cc3cc(C=C4CCN(C(=O)c5cc6ccccc6[nH]5)CC4)ccc3C2=O)C(=O)N1 (centres unmarked) [Compound 24, 3-(5-((1-(1H-indole-2-carbonyl)piperidin-4-ylidene)methyl)-1-oxoinsoindolin-2-yl)piperidine-2,6-dione] | – | – | 93.7% | 88.2%
Cc1c(C(=O)N2CCC(c3ccc4c(c3)CN(C3CCC(=O)NC3=O)C4=O)CC2)[nH]c2cc(NS(C)(=O)=O)ccc12 (centres unmarked) [Compound 74, N-(2-(4-(2-(2,6-dioxopiperidin-3-yl)-1-oxoindolin-5-yl)piperidine-1-carbonyl)-3-methyl-1H-indol-6-yl) methanesulfonamide] | – | – | 73.2% | 75.8%
Cc1c(C(=O)N2CCC(c3ccc4c(c3)CN(C3CCC(=O)NC3=O)C4=O)CC2)[nH]c2ccc(Br)cc12 (centres unmarked) [Compound 33, 3-(5-(1-(5-bromo-3-methyl-1H-indole-2-carbonyl)piperidin-4-yl)-1-oxoinsoindolin-2-yl)piperidine-2,6-dione] | – | – | 71.3% | 64.4%
Cc1c(C(=O)N2CCC(c3ccc4c(c3)CN(C3CCC(=O)NC3=O)C4=O)CC2)[nH]c2ccccc12 (centres unmarked) [Compound 21, 3-(5-(1-(3-methyl-1H-indole-2-carbonyl)piperidin-4-yl)-1-oxoinsoindolin-2-yl)piperidine-2,6-dione] | – | – | 37% | 37.3%
Cc1c(C(=O)N2CCC(c3ccc4c(c3F)CN(C3CCC(=O)NC3=O)C4=O)CC2)[nH]c2c(F)c(C#N)ccc12 (centres unmarked) [Compound 122, 2-(4-(2-(2,6-dioxopiperidin-3-yl)-4-fluoro-1-oxoindolin-5-yl)piperidine-1-carbonyl)-7-fluoro-3-methyl-1H-indole-6-carbonitrile] | – | – | – | 11.2%
O=C1CCC(N2Cc3cc(C4CCN(C(=O)c5cc6cc(F)ccc6[nH]5)CC4)ccc3C2=O)C(=O)N1 (centres unmarked) [Compound 17, 3-(5-(1-(5-fluoro-1H-indole-2-carbonyl)piperidin-4-yl)-1-oxoinsoindolin-2-yl)piperidine-2,6-dione] | – | – | 95% | 96.6%
Cc1c(C(=O)N2CCC(c3ccc4c(c3)CN(C3CCC(=O)NC3=O)C4=O)CC2)[nH]c2ncccc12 (centres unmarked) [Compound 31, 3-(5-(1-(3-methyl-1H-picolo[2,3-b]pyridine-2-carbonyl)piperidin-4-yl)-1-oxoinsoindolin-2-yl)piperidine-2,6-dione] | – | – | 75% | 94.3%
